Test results reported in patent US9714212B2, “Chemical compounds derived from normemantine and use of same in the medical field” (M2I DEVELOPMENT, priority 2013, dated 2017).

How the values were obtained:
[1] = Mouse study of distribution in the body; assay type: in vivo, mice C57/Black 6J
Experimental: (§1) All the mice are the species C57/Black 6J provided by Charles River Laboratories (France) and about 8 weeks old.
(§2) The volume administered to each mouse is defined as […] and is administered once intravenously by means of a suitable syringe and needle.
At the prescribed time the mice are sacrificed, ground material from the organs is extracted and the concentration therein is analyzed by HPLC-MS assays.

NMDA receptors [2] = system: T1, NMDA receptors; experiment: Displacement of tritiated MK-801 from cerebral cortex membrane homogenate (first experiment); assay type: binding; details: for IC50: R0 MK-801, 2 hours at 37° C.
T1 construct: Emission ratio 1st test (%); other: R0 MK-801; [R1]; 1 · 10^−5 Mol/l; first test; Emission ratio 1st test (%); 1 · 10^−6 Mol/l; 1 · 10^−7 Mol/l; 1 · 10^−8 Mol/l; Emission ratio 1
From the text: (§3) In this example, the affinity of fluoroethyl normemantine for NMDA receptors will be compared with that of glutamate (Glu) and of the product Dizocilpine (called “MK-801”), which are known NMDA receptor […] (see Neuroscience Letters, Vol. 80 (1), p. 111-114). MK-801 binds to two different sites in rat brain (Brain Res. 378, p. 133).
(§4) To that end, a material containing NMDA receptors will first be immersed in a solution containing labeled MK-801 (first experiment) or glutamate (second experiment) and then these materials are incubated in solutions containing fluoroethyl normemantine at various concentrations. Next, the radioactive emissions before and after this second incubation are compared. Lower emissions mean that fluoroethyl normemantine has a stronger affinity for NMDA receptors than that of the references and that NMDA receptors are inhibited thereby.
By means of these measurements, a correlation can be established between the concentration of the compound IE and NMDA receptor inhibition. The magnitude of the half-maximal inhibitory concentration (IC50) is deduced therefrom.
As the product to be tested (product R1), either memantine or compound I is used. The experimental protocol is as follows: a homogenate of cerebral cortex membrane (140 μg of proteins) is prepared and then incubated for 2 hours at 37° C. with 10 nM […] (tritiated MK-801) in the absence or presence of compound R1 (in buffer containing 5 mM HEPES/Tris (pH=7.4) and 0.1 mM ethyleneglycol tetraacetic acid). The comparison is made with an incubation of […] MK-801. The samples are quickly filtered under vacuum through glass-fiber filters and rinsed with 50 mM iced Tris-HCl. The filters are dried and their radioactivity is counted on a scintillation counter. The concentration of compound R1 varies, and by comparing for each concentration the difference in emission between the control filter (MK-801 alone) and the MK-801/R1 mixture filter, the ratio of inhibition of compound R1 for each concentration is obtained.

NMDA receptors [3] = system: T2, NMDA receptors; experiment: Displacement of tritiated glutamate from cerebral cortex membrane homogenate (second experiment); assay type: binding; details: R0 Glu
T2 construct: Emission ratio 1st test (%); other: R0 Glu; [R1]; 1 · 10^−6 M; first test; Emission ratio 1st test (%); 1 · 10^−7 M; 1 · 10^−8 M; 1 · 10^−9 M
From the text: as §3
as §4, with “thereby. […]” for “thereby.”
The experimental protocol is much the same as in the first experiment: a homogenate of cerebral cortex membrane (140 μg of protein) is prepared and then incubated for 1 hour at 4° C. with 5 nM tritiated glutamate (tritiated Glu) in the absence or presence of fluoroethyl normemantine (in buffer containing 5 mM Tris-HCl (pH=7.7) and 10 mM ethyleneglycol tetraacetic acid). […] The filters are dried and their radioactivity is counted on a scintillation counter. […]

[4] = Toxicity after a single intravenous administration in mice; assay type: in vivo, mice C57/Black 6J; details: male mice, single 0.125 μg/kg intravenously
Experimental: as §1, §2

Solubility in water = assay type: physicochemical
[5] = Lipophilicity log(P), n-octanol / pH 7.4 buffer, HPLC; assay type: physicochemical; details: 50/50 by volume pH 7.4 buffer solution and octanol
From the text: Lipophilicity: determined by log(P)=log([I]n-octanol/[I]water), by placing the compound (I) in a 50/50 mixture by volume of pH 7.4 buffer solution and octanol, separating the phases, then assaying by means of HPLC the level of the compound (I) present in each of said phases.

[6] = mice, 0.125 μg/kg intravenously, sacrifice at 3 minutes

SMILES: NC12CC3CC(C1)CC(CCF)(C3)C2 [Fluoroethyl normemantine]
- affinity for the brain (share in brain), comparison with prior art ([1]; comparison sentence of b89, time not restated): 12%
- affinity, order of magnitude (NMDA receptors [2]; R0 MK-801): ~10^−6 M
- displacement of MK-801 (NMDA receptors [2]; R0 MK-801): displaces MK-801
- IC50 (NMDA receptors [2]): 6.1 µM
- ability to displace Glu (NMDA receptors [3]): unable to displace Glu
- IC50 (NMDA receptors [3]; 1 hour at 4° C.): cannot be measured

SMILES: CC12CC3CC(C)(C1)CC(N)(C3)C2 [Memantine]
- affinity, order of magnitude (NMDA receptors [2]; R0 MK-801): ~10^−6 M
- IC50 (NMDA receptors [2]): 1.1 µM
- Mean (emission ratio) (NMDA receptors [2]; R0 MK-801, [R1] 1 · 10^−5 Mol/l): 10.8%
- Mean (emission ratio) (NMDA receptors [2]; R0 MK-801, [R1] 1 · 10^−6 Mol/l): 52.3%
- Mean (emission ratio) (NMDA receptors [2]; R0 MK-801, [R1] 1 · 10^−7 Mol/l): 88.8%
- Mean (emission ratio) (NMDA receptors [2]; R0 MK-801, [R1] 1 · 10^−8 Mol/l): 101.4%
- Mean (emission ratio) (NMDA receptors [2]; R0 MK-801, [R1] 1 · 10^−9 Mol/l): 96.9%
- Mean (emission ratio) (NMDA receptors [2]; R0 MK-801, [R1] 3 · 10^−6 Mol/l): 29.0%
- Mean (emission ratio) (NMDA receptors [2]; R0 MK-801, [R1] 3 · 10^−7 Mol/l): 73.1%
- Mean (emission ratio) (NMDA receptors [2]; R0 MK-801, [R1] 3 · 10^−8 Mol/l): 97.5%
- Mean (emission ratio) (NMDA receptors [2]; R0 MK-801, [R1] 3 · 10^−9 Mol/l): 103.3%

SMILES: NC12CC3CC(C1)CC(CCF)(C3)C2 [^18F-fluoroethyl normemantine]
- toxicity (conclusion) [4]: not toxic at the doses tested
- solubility (Solubility in water): > 100 mM
- Brain: % of the injected dose [1, 6]: 12 % of the injected dose
- Kidneys: share of injected dose [1, 6]: 18%
- Liver: share of injected dose [1, 6]: 20%

SMILES: NC12CC3CC(C1)CC(CCF)(C3)C2 [compound (I)]
- log(P) [5]: 3.1 (±0.5)
